Source: PMC9926489, “Chemical Optimization of Selective Pseudomonas aeruginosa LasB Elastase Inhibitors and Their Impact on LasB-Mediated Activation of IL-1β in Cellular and Animal Infection Models” (ACS Infectious Diseases, 2023)

Tests used:
LasB S460T = biological target: T1, LasB S460T (Pseudomonas aeruginosa, UniProt P14756, S460T); assay: LasB variant inhibition, culture supernatant: S460T; type: biochemical, P. aeruginosa
T1 construct: Most changes were identified in the mature peptide, however some occurred in the propeptide domain; endogenous in cells; host or cells: P. aeruginosa clinical CF isolate, culture supernatant
T1 sequence (P14756 198-498 S460T): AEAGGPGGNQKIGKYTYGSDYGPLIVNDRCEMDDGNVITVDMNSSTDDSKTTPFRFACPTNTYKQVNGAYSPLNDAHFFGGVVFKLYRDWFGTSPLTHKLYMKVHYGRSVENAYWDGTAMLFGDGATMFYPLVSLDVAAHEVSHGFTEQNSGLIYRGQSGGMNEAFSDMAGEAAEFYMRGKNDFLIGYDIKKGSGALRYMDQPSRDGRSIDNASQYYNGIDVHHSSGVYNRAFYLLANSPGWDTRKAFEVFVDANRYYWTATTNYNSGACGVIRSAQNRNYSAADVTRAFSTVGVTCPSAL
Text: Compounds 12 and 16 were discovered as a result of optimizing potency against the LasB protein expressed from the wild-type (WT) reference strain P. aeruginosa PAO1. To understand the relative prevalence of the WT LasB protein versus other variants in clinical respiratory P. aeruginosa strains, the full-length lasB gene was amplified by PCR from 255 clinical isolates (obtained from CF sputum samples). […] Most changes were identified in the mature peptide, however some occurred in the propeptide domain, which could affect LasB processing (marked in italics in Table 4).
LasB inhibition assays were performed using purified LasB enzyme (1 ng/well) for compound screening or using culture supernatants (prepared as described in the ECR assay) for testing LasB variants. Hydrolysis of the fluorogenic peptide substrate 2-aminobenzoyl-Ala-Gly-Leu-Ala-4-nitrobenzylamide (Abz-AGLA-Nba; Peptide International) in 50 mM Tris-HCl (pH 7.4), supplemented with 2.5 mM CaCl2 was followed using an Envision microplate reader (PerkinElmer) at 315 nm excitation and 430 nm emission. […] IC50 values were determined from Hill plots using Dotmatics Studies ELN software. For the mechanism of inhibition studies, hydrolysis rates were measured in the presence of variable concentrations of substrate and inhibitor, and the inhibition constant (Ki) was determined using Dixon plot analysis.[31]

[1] = biological target: T2, human neutrophil elastase (HNE) (Homo sapiens, UniProt P08246); assay: HNE selectivity assay; type: biochemical
T2 construct: purchased Enzo Life Sciences
T2 sequence (P08246 30-267): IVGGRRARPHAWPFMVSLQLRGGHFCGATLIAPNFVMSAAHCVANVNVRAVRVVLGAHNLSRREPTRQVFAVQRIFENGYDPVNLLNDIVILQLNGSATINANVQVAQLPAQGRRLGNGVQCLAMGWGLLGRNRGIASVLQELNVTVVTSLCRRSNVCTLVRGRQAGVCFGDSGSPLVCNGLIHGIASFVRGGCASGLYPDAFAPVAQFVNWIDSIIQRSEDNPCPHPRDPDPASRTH
Procedure: (§1) Selectivity of compound inhibition was evaluated against other proteases at concentrations between 0.4 and 200 μM. Activity against rabbit angiotensin-converting enzyme (ACE, Sigma) was assessed using 10 μM fluorogenic substrate Abz-Phe-Arg-Lys(Dnp)-P (Enzo Life Sciences) in 100 mM Tris-HCl pH 7, 50 mM NaCl, 10 μM Zn SO4. Activity against human matrix metalloproteases (MMP)-2 and MMP-9 was assessed in 50 mM HEPES pH 7.5, 10 mM CaCl2, 0.01% Triton X-100 using 4 μM fluorogenic substrate Mca-Pro-Leu-Gly-Leu-Dpa-Ala-Arg-NH2 (Enzo Life Sciences). Activity against MMP-1 and MMP-13 was assessed in 25 mM HEPES pH 7.5, 100 mM NaCl, 100 mM CaCl2, 0.0005% Brij using 7.5 μM fluorogenic substrate Mca-Lys-Pro-Leu-Gly-Leu-Dpa-Ala-Arg-NH2 (Sigma) for MMP-1 and 1.25 μM fluorogenic substrate Mca-Pro-Cha-Gly-Nva-His-Ala-Dpa-NH2 (Millipore) for MMP-13. Activity against human neutrophil elastase (HNE, Enzo Life Sciences) was assessed in 100 mM HEPES pH 7.5, 500 mM NaCl, 0.01% of Triton X-100 using 100 μM fluorogenic substrate MeOSuc-AAPV-AMC (Enzo Life Sciences).

MMP-9 = MMP-9 (Homo sapiens, UniProt P14780); assay: MMP-9 selectivity assay; type: biochemical; details: human MMP-9
Sequence of MMP-9 (P14780 94-707): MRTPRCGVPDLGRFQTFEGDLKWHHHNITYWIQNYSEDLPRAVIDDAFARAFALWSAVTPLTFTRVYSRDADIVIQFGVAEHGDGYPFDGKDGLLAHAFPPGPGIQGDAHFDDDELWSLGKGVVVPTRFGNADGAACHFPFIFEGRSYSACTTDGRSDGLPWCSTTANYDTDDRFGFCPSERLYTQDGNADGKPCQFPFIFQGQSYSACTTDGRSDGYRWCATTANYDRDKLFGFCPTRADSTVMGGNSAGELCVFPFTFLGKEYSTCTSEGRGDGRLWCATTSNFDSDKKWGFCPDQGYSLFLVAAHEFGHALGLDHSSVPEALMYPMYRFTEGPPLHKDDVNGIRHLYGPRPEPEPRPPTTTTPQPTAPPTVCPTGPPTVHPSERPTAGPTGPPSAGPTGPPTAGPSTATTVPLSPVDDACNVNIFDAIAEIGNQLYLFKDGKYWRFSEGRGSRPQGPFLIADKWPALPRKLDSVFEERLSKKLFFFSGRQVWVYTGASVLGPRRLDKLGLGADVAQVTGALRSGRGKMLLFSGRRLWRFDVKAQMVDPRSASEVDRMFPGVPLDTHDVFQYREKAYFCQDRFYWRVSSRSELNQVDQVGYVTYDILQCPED
Procedure: as §1

[2] = Cytotoxicity screening (MTS), HepG2; type: cell-based; details: human, HepG2 cells
Procedure: Bronchial smooth muscle cells (BSMC, Lonza CC-2576), small airway epithelial cells (SAEC, Lonza CC-2547), or HepG2 cells (ATCC HB-8065) were seeded in 96-well plates at a density of 25,000 per well. Culture of these cells throughout the protocol utilized incubation at 37 °C, 5% CO2 in a humidified atmosphere, with BSMC and SAEC cells cultured in cell-specific media (Lonza) and HepG2 cells cultured in RPMI 1640 medium containing Glutamax (Gibco) and 10% fetal bovine serum. Plates containing BSMC cells were collagen coated to assist with cell adhesion. Following an overnight settling period, media was replaced with fresh media, with, or without, compound. Compound concentrations tested were 1, 3, 10, 30, and 100 μM, in duplicate. The cells were incubated with compound for 24 h. Control (1% DMSO) and positive standards terfenadine- and salmeterol-treated groups were included for both cell lines. […] The reaction was stopped with 12.5 μL of 10% SDS, plates briefly shaken, and absorbance (490 nm) read using a Spectramax M5e plate reader (Molecular Devices). Percentages of viable cells were calculated as: (test sample Abs 490 nM-mean blank Abs 490 nm)/(mean control Abs 490 nM-mean blank Abs 490 nm) × 100.

MMP-13 = MMP-13 (Homo sapiens, UniProt P45452); assay: MMP-13 selectivity assay; type: biochemical; details: human MMP-13
Procedure: as §1

[3] = Thermodynamic solubility in PBS (pH 7.4); type: physicochemical; details: aqueous buffer, thermodynamic from solid
MMP-2 = biological target: T3, MMP-2 (Homo sapiens, UniProt P08253); assay: MMP-2 selectivity assay; type: biochemical; details: human MMP-2
T3 sequence (P08253 110-660): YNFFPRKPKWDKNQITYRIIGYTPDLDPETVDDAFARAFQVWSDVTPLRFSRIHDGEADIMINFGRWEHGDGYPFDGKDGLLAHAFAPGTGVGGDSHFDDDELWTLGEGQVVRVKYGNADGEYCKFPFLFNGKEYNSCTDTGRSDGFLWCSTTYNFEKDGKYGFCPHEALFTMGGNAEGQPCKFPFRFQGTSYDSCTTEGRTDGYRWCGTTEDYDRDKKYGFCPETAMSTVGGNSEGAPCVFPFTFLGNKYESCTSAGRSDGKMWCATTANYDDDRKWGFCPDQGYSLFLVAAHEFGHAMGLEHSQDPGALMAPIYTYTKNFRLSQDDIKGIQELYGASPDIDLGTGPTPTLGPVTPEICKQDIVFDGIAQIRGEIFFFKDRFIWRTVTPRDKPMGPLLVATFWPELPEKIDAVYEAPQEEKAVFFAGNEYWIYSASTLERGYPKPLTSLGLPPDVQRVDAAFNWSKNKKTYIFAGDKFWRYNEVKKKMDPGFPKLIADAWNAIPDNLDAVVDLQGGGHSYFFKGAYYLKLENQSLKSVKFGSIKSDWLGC
Procedure: as §1

Row | Compound | IC50 (LasB S460T) | IC50 [1] | IC50 (MMP-9) | IC50 at 24 h [2] | IC50 (MMP-13) | solubility [3] | IC50 (MMP-2)
1 | COc1cc2sc(CNC(=O)C3(CC(=O)O)Cc4cc(F)c(F)cc4C3)nc2cc1OCCC[N+](C)(CCO)CCO [Compound 16] | 0.201 µM | > 200 µM | > 200 µM | > 100 µM | > 100 µM | 15.1 mg/mL | > 200 µM
2 | COc1cc2sc(CNC(=O)C3(CC(=O)O)Cc4ccccc4C3)nc2cc1OCCC[N+](C)(C)C [Compound 12] | 0.211 µM | > 200 µM | > 200 µM | > 100 µM | > 100 µM | 17.7 mg/mL | > 200 µM
